{
  "source": "patent US20260325504A1",
  "about": "“Genetically Engineered Human Pituitary Corticotroph Tumor Organoids Exhibit Divergent Responses to Selective Glucocorticoid Receptor Modulators” (Corcept Therapeutics Incorporated, priority 2022, published 2026)",
  "key": {"iPSC^USP48MV organoids": {"system": "iPSC^USP48MV organoids", "experiment": "ACTH secretion ELISA, iPSCUSP48 organoids", "format": "cell-based, human", "conditions": "text: iPSCUSP48MI; FIG. 7G: iPSCUSP48MV; 500 nM, 48 h", "description": "Sonic Hedgehog (SHH) was withdrawn from the organoid growth media 16 hours prior to treatment. The experimental treatment groups included: vehicle (Veh), mifepristone (500 nM, Selleckchem S2606), GANT61 (5 μM, Stemcell Technologies 73692), ketoconazole (Keto, 10 μM, Selleckchem S1353), pasireotide (Pas, 100 nM, Target Mol TP2207-SB001), octreotide (Oct, 100 nM, Selleckchem P1017), mifepristone plus GANT61, mifepristone plus Keto, mifepristone plus Pas, relacorilant (500 nM, Corcept Therapeutics CORT125134), relacorilant plus Pas, relacorilant plus Oct, or dexamethasone (Dexa, 100 nM, SIGMA S4902). In the combination treatments, cultures were pretreated with the GANT61, Keto, Pas or Oct for 2 hours prior to treatment with mifepristone or Rela. PitNET tissue derived organoids hPITO36, hPITO37, hPITO38, hPITO39, and hPITO40 were treated with the following experimental conditions: Vehicle (1), pasireotide (2), relacorilant (3), relacorilant & pasireotide (4), mifepristone (5), mifepristone & pasireotide (6). The IC50 values used for each hPITO line for each drug were determined based on dose responses (FIG. 12). All organoid cultures were treated for 48 hours prior to analysis.\nOrganoid conditioned media was collected and ACTH secretion using an ELISA according to the manufacturer's protocol (Novus Biologicals Human ACTH ELISA Kit NBP2-66401). The optical density was measured at a wavelength of 450 nm, and ACTH concentration (pg/mL) was interpolated using a standard curve with a 4-parameter logistic regression analysis using GraphPad Prism (v9.3.1)."}, "[1]": {"system": "pancreatic cancer cell lines", "conditions": "in vitro; cited from earlier work"}, "[2]": {"system": "ovarian cancer cell lines", "conditions": "in vitro; cited from earlier work"}},
  "data": [
    {"smiles": "CC#C[C@]1(O)CC[C@H]2[C@@H]3CCC4=CC(=O)CCC4=C3[C@@H](c3ccc(N(C)C)cc3)C[C@@]21C", "note": "[mifepristone, 11β-(4-dimethylaminophenyl)-17ß-hydroxy-17α-(1-propynyl)-estra-4,9-dien-3-one]", "values": [
      {"measurement": "magnitude of ACTH secretion, mifepristone vs relacorilant", "setting": "iPSC^USP48MV organoids", "result": "significantly greater than the effect of relacorilant"}
    ]},
    {"smiles": "Cn1cc(S(=O)(=O)N2CCC3=Cc4c(cnn4-c4ccc(F)cc4)C[C@]3(C(=O)c3cc(C(F)(F)F)ccn3)C2)cn1", "note": "[relacorilant, (R)-(1-(4-fluorophenyl)-6-((1-methyl-1H-pyrazol-4-yl)sulfonyl)-4,4a,5,6,7,8-hexahydro-1H-pyrazolo[3,4-g]isoquinolin-4a-yl) (4-(trifluoromethyl)pyridin-2-yl) methanone]", "values": [
      {"measurement": "apoptosis", "setting": "[1]", "result": "induces apoptosis"},
      {"measurement": "apoptosis", "setting": "[2]", "result": "induces apoptosis"}
    ]}
  ]
}
